Assay results from the supplement of paper PMC10307832.

Key:
Assay in all cases: relative viability (nuclei count vs DMSO), 5 days (fraction); higher = more cells survive
NCI-H3122 = test system: NCI-H3122
How it was run: (§1)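 Relative viability is defined as nuclei in treated wells over nuclei in vehicle wells. Duplicate plates were run and medians reported. Lung cancer cell lines in 1536-well plates were dosed by pin tool one day after seeding, with one drug or with a fixed anchor-drug dose plus five library-drug doses (not always all listed) in √10 steps, and nuclei were counted after 5 days.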

HCC-44 = test system: HCC-44
How it was run: as §1

NCI-H1395 = test system: NCI-H1395
How it was run: as §1

NCI-H2087 = test system: NCI-H2087
How it was run: as §1

NCI-H23 = test system: NCI-H23
How it was run: as §1

HARA = test system: HARA
How it was run: as §1

NCI-H2009 = test system: NCI-H2009
How it was run: as §1

NCI-H441 = test system: NCI-H441
How it was run: as §1

LOU-NH91 = test system: LOU-NH91
How it was run: as §1

NCI-H727 = test system: NCI-H727
How it was run: as §1

LCLC-103H = test system: LCLC-103H
How it was run: as §1

BEN = test system: BEN
How it was run: as §1

NCI-H1993 = test system: NCI-H1993
How it was run: as §1

NCI-H2347 = test system: NCI-H2347
How it was run: as §1

201T = test system: 201T
How it was run: as §1

NCI-H838 = test system: NCI-H838
How it was run: as §1

NCI-H2126 = test system: NCI-H2126
How it was run: as §1

NCI-H650 = test system: NCI-H650
How it was run: as §1

NCI-H1666 = test system: NCI-H1666
How it was run: as §1

NCI-H2023 = test system: NCI-H2023
How it was run: as §1

EMC-BAC-2 = test system: EMC-BAC-2
How it was run: as §1

NCI-H647 = test system: NCI-H647
How it was run: as §1

NC(=O)Nc1cc(-c2cccc(F)c2)sc1C(=O)N[C@H]1CCCNC1 [AZD7762] + CC(=O)c1c(C)c2cnc(Nc3ccc(N4CCNCC4)cn3)nc2n(C2CCCC2)c1=O [Palbociclib] (partner 0.5 µM)
relative viability (NCI-H3122; first compound 0.01 µM): 0.167 | relative viability (NCI-H3122; first compound 0.03162 µM): 0.206 | relative viability (NCI-H3122; first compound 0.1 µM): 0.191 | relative viability (NCI-H3122; first compound 0.3162 µM): 0.199 | relative viability (NCI-H3122; first compound 1 µM): 0.191 | relative viability (HCC-44; first compound 0.01 µM): 1.02 | relative viability (HCC-44; first compound 0.03162 µM): 0.923 | relative viability (HCC-44; first compound 0.1 µM): 0.965 | relative viability (HCC-44; first compound 0.3162 µM): 0.93 | relative viability (HCC-44; first compound 1 µM): 1.04 | relative viability (NCI-H1395; first compound 0.01 µM): 0.642 | relative viability (NCI-H1395; first compound 0.03162 µM): 0.68 | relative viability (NCI-H1395; first compound 0.1 µM): 0.56 | relative viability (NCI-H1395; first compound 0.3162 µM): 0.456 | relative viability (NCI-H1395; first compound 1 µM): 0.363 | relative viability (NCI-H2087; first compound 0.01 µM): 0.213 | relative viability (NCI-H2087; first compound 0.03162 µM): 0.298 | relative viability (NCI-H2087; first compound 0.1 µM): 0.243 | relative viability (NCI-H2087; first compound 0.3162 µM): 0.274 | relative viability (NCI-H2087; first compound 1 µM): 0.317 | relative viability (NCI-H23; first compound 0.01 µM): 0.58 | relative viability (NCI-H23; first compound 0.03162 µM): 0.629 | relative viability (NCI-H23; first compound 0.1 µM): 0.73 | relative viability (NCI-H23; first compound 0.3162 µM): 0.456 | relative viability (NCI-H23; first compound 1 µM): 0.281 | relative viability (HARA; first compound 0.01 µM): 0.308 | relative viability (HARA; first compound 0.03162 µM): 0.245 | relative viability (HARA; first compound 0.1 µM): 0.254 | relative viability (HARA; first compound 0.3162 µM): 0.31 | relative viability (HARA; first compound 1 µM): 0.265 | relative viability (NCI-H2009; first compound 0.01 µM): 0.155 | relative viability (NCI-H2009; first compound 0.03162 µM): 0.214 | relative viability (NCI-H2009; first compound 0.1 µM): 0.221 | relative viability (NCI-H2009; first compound 0.3162 µM): 0.175 | relative viability (NCI-H2009; first compound 1 µM): 0.13 | relative viability (NCI-H441; first compound 0.01 µM): 0.242 | relative viability (NCI-H441; first compound 0.03162 µM): 0.26 | relative viability (NCI-H441; first compound 0.1 µM): 0.232 | relative viability (NCI-H441; first compound 0.3162 µM): 0.251 | relative viability (NCI-H441; first compound 1 µM): 0.256 | relative viability (LOU-NH91; first compound 0.01 µM): 0.528 | relative viability (LOU-NH91; first compound 0.03162 µM): 0.525 | relative viability (LOU-NH91; first compound 0.1 µM): 0.542 | relative viability (LOU-NH91; first compound 0.3162 µM): 0.609 | relative viability (LOU-NH91; first compound 1 µM): 0.503 | relative viability (NCI-H727; first compound 0.01 µM): 0.693 | relative viability (NCI-H727; first compound 0.03162 µM): 0.669 | relative viability (NCI-H727; first compound 0.1 µM): 0.669 | relative viability (NCI-H727; first compound 0.3162 µM): 0.642 | relative viability (NCI-H727; first compound 1 µM): 0.559 | relative viability (LCLC-103H; first compound 0.01 µM): 0.438 | relative viability (LCLC-103H; first compound 0.03162 µM): 0.479 | relative viability (LCLC-103H; first compound 0.1 µM): 0.639 | relative viability (LCLC-103H; first compound 0.3162 µM): 0.449 | relative viability (LCLC-103H; first compound 1 µM): 0.544 | relative viability (BEN; first compound 0.01 µM): 0.476 | relative viability (BEN; first compound 0.03162 µM): 0.483 | relative viability (BEN; first compound 0.1 µM): 0.436 | relative viability (BEN; first compound 0.3162 µM): 0.422 | relative viability (BEN; first compound 1 µM): 0.366 | relative viability (NCI-H1993; first compound 0.01 µM): 0.84 | relative viability (NCI-H1993; first compound 0.03162 µM): 0.648 | relative viability (NCI-H1993; first compound 0.1 µM): 0.709 | relative viability (NCI-H1993; first compound 0.3162 µM): 0.589 | relative viability (NCI-H1993; first compound 1 µM): 0.652 | relative viability (NCI-H2347; first compound 0.01 µM): 0.542 | relative viability (NCI-H2347; first compound 0.03162 µM): 0.469 | relative viability (NCI-H2347; first compound 0.1 µM): 0.479 | relative viability (NCI-H2347; first compound 0.3162 µM): 0.509 | relative viability (NCI-H2347; first compound 1 µM): 0.461 | relative viability (201T; first compound 0.01 µM): 0.361 | relative viability (201T; first compound 0.03162 µM): 0.348 | relative viability (201T; first compound 0.1 µM): 0.361 | relative viability (201T; first compound 0.3162 µM): 0.386 | relative viability (201T; first compound 1 µM): 0.402 | relative viability (NCI-H838; first compound 0.01 µM): 0.27 | relative viability (NCI-H838; first compound 0.03162 µM): 0.198 | relative viability (NCI-H838; first compound 0.1 µM): 0.243 | relative viability (NCI-H838; first compound 0.3162 µM): 0.221 | relative viability (NCI-H838; first compound 1 µM): 0.221 | relative viability (NCI-H2126; first compound 0.01 µM): 0.353 | relative viability (NCI-H2126; first compound 0.03162 µM): 0.363 | relative viability (NCI-H2126; first compound 0.1 µM): 0.346 | relative viability (NCI-H2126; first compound 0.3162 µM): 0.369 | relative viability (NCI-H2126; first compound 1 µM): 0.397 | relative viability (NCI-H650; first compound 0.01 µM): 0.377 | relative viability (NCI-H650; first compound 0.03162 µM): 0.374 | relative viability (NCI-H650; first compound 0.1 µM): 0.403 | relative viability (NCI-H650; first compound 0.3162 µM): 0.38 | relative viability (NCI-H650; first compound 1 µM): 0.382 | relative viability (NCI-H1666; first compound 0.01 µM): 0.609 | relative viability (NCI-H1666; first compound 0.03162 µM): 0.728 | relative viability (NCI-H1666; first compound 0.1 µM): 0.701 | relative viability (NCI-H1666; first compound 0.3162 µM): 0.565 | relative viability (NCI-H1666; first compound 1 µM): 0.65 | relative viability (NCI-H2023; first compound 0.01 µM): 0.402 | relative viability (NCI-H2023; first compound 0.03162 µM): 0.377 | relative viability (NCI-H2023; first compound 0.1 µM): 0.219 | relative viability (NCI-H2023; first compound 0.3162 µM): 0.162 | relative viability (NCI-H2023; first compound 1 µM): 0.095 | relative viability (EMC-BAC-2; first compound 0.01 µM): 0.555 | relative viability (EMC-BAC-2; first compound 0.03162 µM): 0.527 | relative viability (EMC-BAC-2; first compound 0.1 µM): 0.537 | relative viability (EMC-BAC-2; first compound 0.3162 µM): 0.554 | relative viability (EMC-BAC-2; first compound 1 µM): 0.541 | relative viability (NCI-H647; first compound 0.01 µM): 0.434 | relative viability (NCI-H647; first compound 0.03162 µM): 0.424 | relative viability (NCI-H647; first compound 0.1 µM): 0.359 | relative viability (NCI-H647; first compound 0.3162 µM): 0.163 | relative viability (NCI-H647; first compound 1 µM): 0.125
